Columns and labels:
GlmU = biological target: T1, GlmU (Escherichia coli, UniProt P0ACC7); assay: surface plasmon resonance, immobilised His-tagged GlmU, […] equilibrium affinity; assay type: binding; details: read-out: equilibrium dissociation constant
T1 construct: full-length in pET28a, His-tag kept; expressed in E. coli BL21(DE3)

MadA^C = biological target: T2, MadA^C (Escherichia coli, UniProt P0ADQ2); assay: malonyl-CoA decarboxylase assay, HPLC; assay type: biochemical; details: 0.1 M Tris pH 7, 0.2 M NaCl, 37 °C; given for the Mad proteins collectively
T2 construct: gene fabY; C-terminal hot dog domain, residues 171-329, His6-tag cleaved by thrombin, dimer; expressed in E. coli BL21(DE3)
T2 sequence (P0ADQ2 171-329): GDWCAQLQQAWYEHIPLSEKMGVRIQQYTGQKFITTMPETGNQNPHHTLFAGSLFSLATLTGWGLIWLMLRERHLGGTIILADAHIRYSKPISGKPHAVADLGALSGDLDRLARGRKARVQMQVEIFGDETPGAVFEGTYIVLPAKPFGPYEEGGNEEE

MadA = biological target: T3, MadA (Escherichia coli, UniProt P0ADQ2, M17A); assay: malonyl-CoA decarboxylase assay, HPLC; assay type: biochemical; details: 0.1 M Tris pH 7, 0.2 M NaCl, 37 °C; given for the Mad proteins collectively
T3 construct: gene fabY; full-length GNAT-hot dog protein, dimer, pET28a His-tag, M17A to remove second start site; expressed in E. coli BL21(DE3)
T3 sequence (P0ADQ2 whole entry M17A): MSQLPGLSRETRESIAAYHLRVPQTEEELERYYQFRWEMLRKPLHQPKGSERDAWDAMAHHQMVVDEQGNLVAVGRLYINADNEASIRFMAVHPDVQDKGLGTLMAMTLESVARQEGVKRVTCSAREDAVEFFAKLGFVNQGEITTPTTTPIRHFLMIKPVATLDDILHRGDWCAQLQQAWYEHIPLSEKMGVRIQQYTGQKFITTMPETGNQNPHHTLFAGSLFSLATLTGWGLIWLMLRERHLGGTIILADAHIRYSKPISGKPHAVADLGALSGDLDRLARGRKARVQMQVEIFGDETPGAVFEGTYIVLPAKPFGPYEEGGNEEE

MadB [1] = biological target: T4, MadB (Shewanella oneidensis, UniProt Q8E989, S54A); assay: malonyl-CoA decarboxylase assay, HPLC; assay type: biochemical; details: 4 mM malonyl-CoA, 0.1 M Tris pH 7, 0.2 M NaCl, 37 °C
T4 construct: gene yiiD
T4 sequence (Q8E989 entry or part of it S54A): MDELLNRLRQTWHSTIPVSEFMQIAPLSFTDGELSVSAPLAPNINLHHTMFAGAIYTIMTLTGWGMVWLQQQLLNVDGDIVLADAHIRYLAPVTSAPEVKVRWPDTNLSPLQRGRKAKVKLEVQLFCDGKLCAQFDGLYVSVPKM

MadB [2] = biological target: T5, MadB (Shewanella oneidensis, UniProt Q8E989, D79A); assay: malonyl-CoA decarboxylase assay, HPLC; assay type: biochemical; details: 4 mM malonyl-CoA, 0.1 M Tris pH 7, 0.2 M NaCl, 37 °C
T5 construct: gene yiiD
T5 sequence (Q8E989 entry or part of it D79A): as the sequence (Q8E989 entry or part of it S54A) above, with A54S, D79A counted along it

MadB [3] = biological target: T6, MadB (Shewanella oneidensis, UniProt Q8E989); assay: malonyl-CoA decarboxylase assay, HPLC; assay type: biochemical; details: 0.1 M Tris pH 7, 0.2 M NaCl, 37 °C; given for the Mad proteins collectively
T6 construct: gene yiiD
T6 sequence (Q8E989 1-145): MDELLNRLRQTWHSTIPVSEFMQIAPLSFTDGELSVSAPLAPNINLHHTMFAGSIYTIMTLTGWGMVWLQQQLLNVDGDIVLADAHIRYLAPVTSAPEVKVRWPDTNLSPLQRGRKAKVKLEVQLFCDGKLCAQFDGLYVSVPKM

T1 sequence (P0ACC7 whole entry): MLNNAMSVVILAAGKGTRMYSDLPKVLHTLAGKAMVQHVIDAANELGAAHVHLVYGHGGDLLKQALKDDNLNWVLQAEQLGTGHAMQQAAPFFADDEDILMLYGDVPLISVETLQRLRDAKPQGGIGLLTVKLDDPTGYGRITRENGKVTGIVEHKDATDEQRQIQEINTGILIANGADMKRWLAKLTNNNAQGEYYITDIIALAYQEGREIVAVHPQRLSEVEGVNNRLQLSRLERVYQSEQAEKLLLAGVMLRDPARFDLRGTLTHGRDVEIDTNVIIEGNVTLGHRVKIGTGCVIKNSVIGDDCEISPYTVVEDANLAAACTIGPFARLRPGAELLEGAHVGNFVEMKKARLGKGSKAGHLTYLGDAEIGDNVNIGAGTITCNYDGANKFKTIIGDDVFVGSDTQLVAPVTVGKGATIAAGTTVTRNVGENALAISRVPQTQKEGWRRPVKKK

SMILES | Kd (GlmU) | Km (MadA^C) | Km (MadA) | malonyl-CoA decarboxylase assay, HPLC (MadB [1]) | malonyl-CoA decarboxylase assay, HPLC (MadB [2]) | Km (MadB [3])
CC(=O)SCCNC(=O)CCNC(=O)[C@H](O)C(C)(C)COP(=O)(O)OP(=O)(O)OC[C@H]1O[C@@H](n2cnc3c(N)ncnc32)[C@H](O)[C@@H]1OP(=O)(O)O [acetyl-CoA] | 967 ± 48.3 µM |  |  |  |  | 
CC(C)(COP(=O)(O)OP(=O)(O)OC[C@H]1O[C@@H](n2cnc3c(N)ncnc32)[C@H](O)[C@@H]1OP(=O)(O)O)[C@@H](O)C(=O)NCCC(=O)NCCSC(=O)CC(=O)O [malonyl-CoA] |  | > 5 mM | > 5 mM | The MadB(S54A) and MadB(D79A) mutants had nearly normal malonyl-CoA decarboxylase activity | The MadB(S54A) and MadB(D79A) mutants had nearly normal malonyl-CoA decarboxylase activity | > 5 mM
